Where two headings read alike, the source gives them in different places.

For series [1], the system named is Larvae of Plutella xylostella. Put plainly: Insecticidal effect on larvae of Plutella xylostella (cabbage leaf disc dip). The class given is in vivo. Conditions: foliar, 96 h, read-out: Death Rate (%). The procedure: The agricultural and horticultural pesticide of the present invention (a wettable powder) was obtained in accordance with Formulation Example 1 and diluted with water to prepare a suspension having a prescribed concentration. A disc (6 cm in diameter) cut out of a cabbage leaf was soaked in the suspension for 1 minute, air-dried, and placed in a plastic cup (inner diameter: 7 cm). Five 3-instar larvae of Plutella xylostella were put in the cup (duplicates at one concentration). Four days later, the death and agony of the larvae were examined to obtain a death rate (%) taking an agonizing insect as a 1/2 dead insect. The results obtained are shown in Table 5 (the compound numbers in Table 5 correspond to those in Tables 1, 2 and 3).

Series [2] deals with Rice Blast Fungus (Magnaporthe grisea). It is filed as in vivo. Conditions: 250 ppm, 10 ml/pot foliar spray, rice (Akinishiki), lesions per leaf counted vs untreated pot after 24 hours moist chamber and 7 days greenhouse.
Series [3] concerns Larvae of Nilaparvata lugens. In words: Insecticidal effect on larvae of Nilaparvata lugens (spray on rice seedling in glass cylinder). Conditions: 120 h, read-out: Death Rate (%). It is filed as in vivo. The procedure: A rice seedling was setted in a glass cylinder (inner diameter: 3 cm; length: 17 cm), and five 4th instar larvae of Nilaparvata lugens were set free therein. The agricultural and horticultural pesticide of the present invention (an emulsifiable concentrate) was prepared in accordance with Formulation Example 3 and diluted with water, and 0.5 ml of the resulting emulsion was sprayed in the cylinder by means of a spray tower (manufactured by Mizuho Rika) (duplicates at 1 concentration). Five days after the treatment, the mortality and agony of the larvae were examined to obtain a death rate (%) taking an agonizing insect as a 1/2 dead insect. The results obtained are shown in Table 4 (the compound numbers in Table 4 correspond to those in Tables 1, 2 and 3).

The nature of series [4]: Acute toxicity in mice in single oral administration. Particulars: mouse, in vivo, 30 mg/kg, 30 mg-active ingredient/kg, five 6-week-old CD-1 male mice, 7 days after administration, read-out: Death Rate (%). How it is done:
Acute toxicity (p.o.) in mice of compound Nos. 8, 10, 13, 22, 23, 38, 42, and 52 was examined as follows. For comparison, compounds (IV), (V) and (VI) disclosed in JP-A-2-62876 were tested similarly.
Compound Nos. 8, 10, 22, 23, 38, and 42 (30 mg each) were each suspended in 10 ml of a 0.5% CMC-Na aqueous solution. Compound Nos. 13 and 52 and compounds (IV), (V) and (VI) (30 mg each) were each suspended in 10 ml of a 0.5% tragacanth gum aqueous solution. The suspension was orally given to a group each consisting of five 6-week-old CD-1 male mice (available from Charles River) at a dose of 10 ml-suspension per kg of the body weight. The number of dead mice was counted after 7 days from the administration to obtain a death rate.

In series [5] the test system is Tomato Late Blight Fungus (Phytophthora infestans). The class given is in vivo. Particulars: 250 ppm, 10 ml per pot foliar spray, tomato (Red Cherry), degree of disease vs untreated pot after 24 hours moist chamber and 4 days greenhouse.
Where [6] appears, read: 500 ppm, emulsifiable concentrate diluted with water, 4th instar larvae, five days after treatment, agonizing insect counted as 1/2 dead.
Where [7] appears, read: 500 ppm, wettable powder suspension, 3-instar larvae, four days later, agonizing insect counted as 1/2 dead.

`Cc1nn(C)c(C(=O)NCc2ccc(Oc3cccc(C(F)(F)F)c3)nc2)c1C` [Compound No. 10, N-[6-(3-Trifluoromethylphenoxy)-3-pyridylmethyl]-1,3,4-trimethyl-5-pyrazolecarboxamide]: the mortality at 500 ppm in series [1] and in series [3] was 100% each time. Further, the “Control Value (%)” value in series [2] amounted to 89%; in series [5], 100%. Further, the mortality at 168 h in series [4] was 0%.
As to `Cc1nn(C)c(C(=O)NCc2ccc(Oc3cccc(Cl)c3)nc2)c1C` [compound 8], the mortality at 500 ppm in series [3] (setting [6]) is 100%. In addition, the mortality at 168 h in series [4] stood at 0%. In series [5], the “Control Value (%)” value is 100%.
Turning to `CCc1nn(C)c(C(=O)NCc2ccc(Oc3cccc(C(F)(F)F)c3)nc2)c1Cl` [compound 13], the mortality at 500 ppm in series [1] (setting [7]) and in series [3] (setting [6]) was 100% throughout. Moreover, the entries for the “Control Value (%)” value in series [2] and in series [5] were 87% and 85%, respectively. In addition, the mortality at 168 h in series [4] was found to be 0%.
In the case of `Cc1nn(C)c(C(=O)NCc2ccc(Oc3ccc4ccccc4c3)nc2)c1Cl` [compound 22], the mortality at 168 h in series [4] stood at 0%. In addition, in series [5], the “Control Value (%)” value stood at 100%.
Take `Cc1nn(C)c(C(=O)NCc2ccc(Oc3ccc4ccccc4c3)nc2)c1Br` [compound 23]: in series [4], the mortality at 168 h was found to be 0%.
Turning to `CCc1nn(C)c(C(=O)NCc2ccc(Oc3ccc4ccccc4c3)nc2)c1Cl` [compound 38], the mortality at 500 ppm in series [1] (setting [7]) and in series [3] (setting [6]) was 90% throughout. The “Control Value (%)” value in series [2] is listed as 100%. The mortality at 168 h in series [4] was 0%.
For the molecule `Cn1nc2c(c1C(=O)NCc1ccc(Oc3ccc4ccccc4c3)nc1)CCC2` [compound 42], the mortality at 500 ppm in series [1] (setting [7]) came to 100%; in series [3] (setting [6]), 90%. The mortality at 168 h in series [4] came out at 0%. Besides, the “Control Value (%)” value in series [5] stood at 100%.
Take `COc1c(C)nn(C)c1C(=O)N(Cc1ccc(Oc2ccc3ccccc3c2)nc1)C(C)=O` [compound 52]: the mortality at 500 ppm in series [3] (setting [6]) came out at 90%. In addition, the mortality at 168 h in series [4] was 0%. Moreover, in series [5], the “Control Value (%)” value came to 100%.

These data come from patent publication EP0891975A1 (priority 1996, dated 1997).
